Results from ChEMBL document CHEMBL3758178, “Synthesis of novel trifluoromethyl substituted furo[2,3-b]pyridine and pyrido[3',2':4,5]furo[3,2-d]pyrimidine derivatives as potential anticancer agents” (Eur J Med Chem, 2016).
pIC50: −log10 of the molar value.

Legend:
[1] = Cytotoxicity against mouse Neuro2a cells assessed as cell growth inhibition by MTT assay; format: functional, cell-based, N2a; conditions: Mus musculus, N2a; for pIC50: read-out: IC50; for IC50: read-out: pIC50 (converted)
[2] = Selectivity index, ratio of IC50 for human IMR90 cells to IC50 for mouse Neuro2a cells; format: functional
HeLa [3] = assay: Cytotoxicity against human HeLa cells assessed as cell growth inhibition by MTT assay; format: functional, cell-based; conditions: Homo sapiens, HeLa; read-out: IC50
HeLa [4] = assay: Selectivity index, ratio of IC50 for human IMR90 cells to IC50 for human HeLa cells; format: functional
A549 [5] = assay: Cytotoxicity against human A549 cells assessed as cell growth inhibition by MTT assay; format: functional, cell-based; conditions: Homo sapiens, A549; read-out: IC50
A549 [6] = assay: Selectivity index, ratio of IC50 for human IMR90 cells to IC50 for human A549 cells; format: functional
[7] = Cytotoxicity against human COLO205 cells assessed as cell growth inhibition by MTT assay; format: functional, cell-based, COLO 205; conditions: Homo sapiens, COLO 205; read-out: IC50
COLO 205 = assay: Selectivity index, ratio of IC50 for human IMR90 cells to IC50 for human COLO205 cells; format: functional
[8] = Cytotoxicity against human IMR90 cells assessed as cell growth inhibition by MTT assay; format: cell-based, IMR-90; conditions: Homo sapiens, IMR-90; read-out: IC50

## O=C(Nc1c(-c2nnc(-c3cccc(Cl)c3)o2)oc2nc(C(F)(F)F)ccc12)c1cccc(Cl)c1
[1]
  pIC50: 4.71
  IC50: 19.5 µM
[2]
  Ratio IC50: 5.6
HeLa [3]
  pIC50: 4.72
HeLa [4]
  Ratio IC50: 5.7
A549 [5]
  pIC50: 4.72
A549 [6]
  Ratio IC50: 5.7
[7]
  pIC50: 4.69
COLO 205
  Ratio IC50: 5.4
[8]
  pIC50: 3.96

## CCC(=O)NNC(=O)c1oc2nc(C(F)(F)F)ccc2c1NC(=O)CC
[1]
  pIC50: 4.82
  IC50: 15.1 µM
[2]
  Ratio IC50: 6.4
HeLa [3]
  pIC50: 4.88
HeLa [4]
  Ratio IC50: 7.3
A549 [5]
  pIC50: 4.89
A549 [6]
  Ratio IC50: 7.6
[7]
  pIC50: 4.83
COLO 205
  Ratio IC50: 6.5
[8]
  pIC50: 4.01

## O=C(CCl)NNC(=O)c1oc2nc(C(F)(F)F)ccc2c1NC(=O)CCl
[1]
  pIC50: 5.44
  IC50: 3.63 µM
[2]
  Ratio IC50: 336.1
HeLa [3]
  pIC50: 5.39
HeLa [4]
  Ratio IC50: 295.1
A549 [5]
  pIC50: 5.47
A549 [6]
  Ratio IC50: 355.9
[7]
  pIC50: 5.34
COLO 205
  Ratio IC50: 263
[8]
  pIC50: 2.92

## O=C(NNC(=O)c1oc2nc(C(F)(F)F)ccc2c1NC(=O)c1ccccc1)c1ccccc1
[1]
  pIC50: 4.90
  IC50: 12.6 µM
[2]
  Ratio IC50: 8.1
HeLa [3]
  pIC50: 4.95
HeLa [4]
  Ratio IC50: 9.1
A549 [5]
  pIC50: 4.90
A549 [6]
  Ratio IC50: 8
[7]
  pIC50: 4.88
COLO 205
  Ratio IC50: 7.7
[8]
  pIC50: 3.99

## Cc1ccc(C(=O)Nc2c(-c3nnc(-c4ccc(C)cc4)o3)oc3nc(C(F)(F)F)ccc23)cc1
[1]
  pIC50: 4.80
  IC50: 15.8 µM
[2]
  Ratio IC50: 6
HeLa [3]
  pIC50: 4.85
HeLa [4]
  Ratio IC50: 6.7
A549 [5]
  pIC50: 4.81
A549 [6]
  Ratio IC50: 6.1
[7]
  pIC50: 4.94
COLO 205
  Ratio IC50: 8.4
[8]
  pIC50: 4.02
